According to US20250280861A1, “SWEETENER COMPOSITIONS” (Firmenich Incorporated, priority 2022, published 2025):
Where two headings read alike, the source gives them in different places.

Biological target: T1, hT1R2/T1R3 taste receptor (Homo sapiens, UniProt Q7RTX0+Q8TE23)
T1 sequence (Q8TE23 20-839): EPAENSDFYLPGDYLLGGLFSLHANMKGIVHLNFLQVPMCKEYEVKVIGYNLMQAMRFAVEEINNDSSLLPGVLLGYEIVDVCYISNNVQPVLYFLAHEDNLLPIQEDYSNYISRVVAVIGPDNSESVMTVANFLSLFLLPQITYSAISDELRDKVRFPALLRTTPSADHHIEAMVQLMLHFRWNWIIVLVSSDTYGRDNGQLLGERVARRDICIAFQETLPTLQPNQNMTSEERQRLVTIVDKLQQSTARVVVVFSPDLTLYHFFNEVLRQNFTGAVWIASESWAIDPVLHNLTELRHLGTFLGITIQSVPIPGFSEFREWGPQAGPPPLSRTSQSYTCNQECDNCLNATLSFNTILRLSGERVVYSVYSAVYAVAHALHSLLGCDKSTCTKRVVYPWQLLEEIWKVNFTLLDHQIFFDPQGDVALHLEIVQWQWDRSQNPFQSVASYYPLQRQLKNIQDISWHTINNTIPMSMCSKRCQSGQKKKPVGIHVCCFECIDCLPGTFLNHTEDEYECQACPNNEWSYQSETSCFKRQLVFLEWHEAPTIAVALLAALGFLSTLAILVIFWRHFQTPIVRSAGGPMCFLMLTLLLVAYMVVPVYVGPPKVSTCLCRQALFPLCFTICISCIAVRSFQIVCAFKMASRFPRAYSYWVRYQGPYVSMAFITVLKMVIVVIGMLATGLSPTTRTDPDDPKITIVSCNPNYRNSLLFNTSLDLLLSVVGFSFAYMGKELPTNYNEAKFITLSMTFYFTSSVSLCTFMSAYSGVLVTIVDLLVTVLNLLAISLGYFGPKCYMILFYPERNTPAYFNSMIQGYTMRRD
T1 sequence (Q7RTX0 21-852): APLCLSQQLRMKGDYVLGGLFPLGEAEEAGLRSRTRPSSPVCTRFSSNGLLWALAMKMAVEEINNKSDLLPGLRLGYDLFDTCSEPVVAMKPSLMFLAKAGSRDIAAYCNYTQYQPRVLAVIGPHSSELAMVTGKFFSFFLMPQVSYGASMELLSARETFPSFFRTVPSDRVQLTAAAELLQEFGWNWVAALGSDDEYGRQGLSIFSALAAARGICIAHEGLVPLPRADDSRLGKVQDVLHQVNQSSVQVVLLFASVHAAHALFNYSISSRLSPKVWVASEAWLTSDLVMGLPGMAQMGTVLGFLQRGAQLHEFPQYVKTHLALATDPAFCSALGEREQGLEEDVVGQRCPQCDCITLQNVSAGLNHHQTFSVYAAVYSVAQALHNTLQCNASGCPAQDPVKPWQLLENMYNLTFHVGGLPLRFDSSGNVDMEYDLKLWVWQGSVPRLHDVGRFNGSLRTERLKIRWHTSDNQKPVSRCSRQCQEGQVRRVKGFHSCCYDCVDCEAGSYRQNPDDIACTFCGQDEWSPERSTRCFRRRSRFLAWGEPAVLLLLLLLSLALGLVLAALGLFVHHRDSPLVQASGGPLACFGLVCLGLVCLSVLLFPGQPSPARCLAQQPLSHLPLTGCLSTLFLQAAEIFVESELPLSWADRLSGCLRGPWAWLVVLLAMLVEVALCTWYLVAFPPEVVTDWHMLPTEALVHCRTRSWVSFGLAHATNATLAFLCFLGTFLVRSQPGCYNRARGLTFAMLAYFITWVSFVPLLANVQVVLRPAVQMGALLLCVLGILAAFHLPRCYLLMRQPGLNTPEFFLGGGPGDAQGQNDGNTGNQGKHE
Assay: agonist activity against the hT1R2/T1R3 taste receptor (sweet receptor based assay)
Assay type: cell-based
Experimental: Compounds described in this application show moderate to potent agonist effect on the sweet receptor based assay. Potencies (EC50 values, e.g. see Tables 1-3) for agonist activity were measured against the hT1R2/T1R3 taste receptor. FIG. 1 exemplifies the data generated during the screening to determine EC50 values.

[1] = agonist activity, hT1R2/T1R3, read-out: Sweet EC50

Row | Structure (SMILES) | EC50 [1] [µM] | EC50 [µM]
1 | COCC(C(=O)NCC(C)C)N1CCC(c2cccc(F)c2F)CC1 (stereo not drawn) [Compound 114] | 0.4 | 
2 | CC(C)CNC(=O)C(C)(C)N1CC=C(c2cccc(F)c2F)CC1 [Compound 59] | 1.7 | 
3 | CC(C)CNC(=O)C(C)(C)N1CC=C(c2cccc(CO)c2F)CC1 [Compound 66] | > 10 | 
4 | CC(C)CNC(=O)C(C)(C)N1CCC(c2ccc(F)cc2)CC1 [Compound 97] | 6.2 | 
5 | Cc1cccc(N2CCN(CC(=O)NCC(C)C)CC2)c1C [Compound 12] | 9.7 | 
6 | CC(C)CNC(=O)C(C)(C)N1CCC(c2cccc(CO)c2F)CC1 [Compound 99] | 4.7 | 
7 | Cc1ncccc1C1CCN(C(C)(C)C(=O)NCC(C)C)CC1 [Compound 108] | > 10 | 
8 | CC(C)CNC(=O)C(C)(C)N1CCC2(CC1)COc1ccccc12 [Compound 122] | 2.5 | 
9 | CC(C)CNC(=O)C(C)(C)N1CC=C(c2ccccc2N(C)C)CC1 [Compound 67] | > 10 | 
10 | CC(C)CNC(=O)C(C)(C)N1CCN(c2cccc(F)c2F)CC1 [Compound 3, 2-(4-(2,3-difluorophenyl)piperazin-1-yl)-N-isobutyl-2-methylpropanamide] | 1.6 | 
11 | CCCNC(=O)C(C)(C)N1CCC(c2ccccc2)CC1 [Compound 85] | 5.5 | 
12 | CC(C)CNC(=O)C(C)(C)N1CCC(c2cccc(C(=O)N(C)C)c2)CC1 [Compound 106] | > 10 | 
13 | Cc1ccncc1C1CCN(C(C)(C)C(=O)NCC(C)C)CC1 [Compound 107] | > 10 | 
14 | COCc1c(F)cccc1C1=CCN(C(C)(C)C(=O)NCC(C)C)CC1 [Compound 61] | 6.5 | 
15 | COCc1cccc(C2=CCN(C(C)(C)C(=O)NCC(C)C)CC2)c1F [Compound 60] | 1.2 | 
16 | CCC(C)(C)NC(=O)C(C)(C)N1CCC(C#N)(c2cccc(F)c2F)CC1 [Compound 127] |  | 1.5
17 | CC(C)CNC(=O)C(C)(C)N1CCC(C#N)(c2ccccc2)CC1 [Compound 124] |  | 2.2
18 | CC(C)CNC(=O)C(C)(C)N1CCN(c2cccc(CO)c2F)CC1 [Compound 35] | > 10 | 
19 | CC(C)CNC(=O)C(C)(C)N1CC=C(c2cccc(C(=O)N(C)C)c2)CC1 [Compound 74] | > 10 | 
20 | Cc1cccc(N2CCN(C(C)(C)C(=O)NCCC(C)C)CC2)c1C [Compound 26] | 8 | 

Row | Structure (SMILES) | EC50 [1] [µM] | EC50 [µM]
21 | CC(C)(C)CNC(=O)C(C)(C)N1CCC(c2ccccc2)CC1 [Compound 88] | 4.2 | 
22 | CC(C)CNC(=O)C(C)(C)N1CCN(c2ccccc2C#N)CC1 [Compound 48] | > 10 | 
23 | CC(C)CNC(=O)C(C)(C)N1CCN(c2ccccc2CO)CC1 [Compound 6] | > 10 | 
24 | CC(C)CNC(=O)C(C)(C)N1CC=C(c2ccccc2C(=O)N(C)C)CC1 [Compound 73] | > 10 | 
25 | COCc1cccc(N2CCN(C(C)(C)C(=O)NCC(C)C)CC2)c1 [Compound 45] | > 10 | 
26 | CCNC(=O)C(C)(C)N1CCN(c2cccc(C)c2C)CC1 [Compound 8] | > 10 | 
27 | COCc1cccc(C2CCN(C(C)(C)C(=O)NCC(C)C)CC2)c1F [Compound 95] | 0.5 | 
28 | Cc1cccc(N2CCN(C(C)(C)C(=O)NCC(C)C)CC2)c1C [Compound 10] | 2.8 | 
29 | CC(C)CNC(=O)C(C)(C)N1CCN(c2cccc(F)c2)CC1 [Compound 44] | > 10 | 
30 | CC(C)(C)NC(=O)C(C)(C)N1CCC(C#N)(c2cccc(F)c2F)CC1 [Compound 126] |  | 2
31 | Cc1ccccc1C1CCN(C(C)(C)C(=O)NCC(C)C)CC1 [Compound 92] | 1.6 | 
32 | CC(C)CNC(=O)C(C)(C)N1CCN(c2cc(F)ccc2F)CC1 [Compound 39] | > 10 | 
33 | COCC(C(=O)NCC(C)C)N1CCC(C#N)(c2cccc(F)c2F)CC1 (stereo not drawn) [Compound 129] |  | 4.3
34 | Cc1cccnc1N1CCN(C(C)(C)C(=O)NCC(C)C)CC1 [Compound 41] | > 10 | 
35 | CC(C)CNC(=O)C(C)(C)N1CC=C(c2ccccc2)CC1 [Compound 56] | 3.3 | 
36 | Cc1cccc(N2CCN(CC(=O)NC3CC3)CC2)c1C [Compound 31] | > 10 | 
37 | Cc1cccc(N2CCN(C(C)C(=O)NC3CC3)CC2)c1C (stereo not drawn) [Compound 32] | > 10 | 
38 | Cc1cccc(N2CCN(C(C)(C)C(=O)NCC(C)C)CC2)c1 [Compound 43] | > 10 | 
39 | COCc1ccccc1C1CCN(C(C)(C)C(=O)NCC(C)C)CC1 [Compound 110] | > 10 | 
40 | COC(=O)c1c(F)cccc1N1CCN(C(C)(C)C(=O)NCC(C)C)CC1 [Compound 7, Methyl 2-fluoro-6-(4-(1-(isobutylamino)-2-methyl-1-oxopropan-2-yl)piperazin-1-yl)benzoate] | 11.5 | 

Row | Structure (SMILES) | EC50 [1] [µM] | EC50 [µM]
41 | CC(C)CNC(=O)C(C)(C)N1CCC(c2cccc3c2OCO3)CC1 [Compound 104] | 1.7 | 
42 | CC(C)CNC(=O)C(C)(C)N1CC=C(c2cncc(C#N)c2)CC1 [Compound 70] | > 10 | 
43 | CC(C)(C(=O)NC1CCC1)N1CCC(c2ccccc2)CC1 [Compound 83] | > 10 | 
44 | COCc1ccc(C2=CCN(C(C)(C)C(=O)NCC(C)C)CC2)c(F)c1 [Compound 69] | > 10 | 
45 | Cc1ncccc1C1=CCN(C(C)(C)C(=O)NCC(C)C)CC1 [Compound 76] | > 10 | 
46 | COCC(C(=O)NCC(C)C)N1CCC(c2ccccc2)CC1 (stereo not drawn) [Compound 113] | 4.4 | 
47 | Cc1cccc(N2CCN(C(C)(C)C(=O)NCC3CCCCC3)CC2)c1C [Compound 16] | > 10 | 
48 | CC(C)(C(=O)NC1CC1)N1CCN(c2cccc(F)c2F)CC1 [Compound 33] | 3.9 | 
49 | COc1ccccc1N1CCN(C(C)(C)C(=O)NCC(C)C)CC1 [Compound 52] | > 10 | 
50 | COCC1(c2ccccc2)CCN(C(C)(C)C(=O)NCC(C)C)CC1 [Compound 120] |  | > 10
51 | COCCNC(=O)C(C)(C)N1CCC(C#N)(c2cccc(F)c2F)CC1 [Compound 125] |  | > 10
52 | COCc1cccc(C2=CCN(C(COC)C(=O)NCC(C)C)CC2)c1F (stereo not drawn) [Compound 55, 2-(4-(2-fluoro-3-(methoxymethyl)phenyl)-3,6-dihydropyridin-1(2H)-yl)-N-isobutyl-3-methoxypropanamide] | 1.4 | 
53 | CC(C)CNC(=O)C(C)(C)N1CCCC(c2ccccc2)CC1 (stereo not drawn) [Compound 117] | 10.9 | 
54 | CC(C)CNC(=O)C(C)(C)N1CCC(c2cccc(F)c2F)CC1 [Compound 94] | 0.14 | 
55 | CC(C)CNC(=O)C(C)(C)N1CCC(c2ccccc2F)CC1 [Compound 91] | 0.4 | 
56 | CC(C)CNC(=O)C(C)(C)N1CC=C(c2cccc3c2OCO3)CC1 [Compound 72] | > 10 | 
57 | CC(C)CNC(=O)C(C)N1CCC(c2ccccc2)CC1 (stereo not drawn) [Compound 90] | 4.7 | 
58 | CC(C)CNC(=O)C(C)(C)N1CCC(C#N)(c2cccc(F)c2F)CC1 [Compound 79, 2-(4-cyano-4-(2,3-difluorophenyl)piperidin-1-yl)-N-isobutyl-2-methylpropanamide] |  | 1.6
59 | CC(C)CNC(=O)C(C)(C)N1CC=C(c2ccccc2F)CC1 [Compound 57] | 1.6 | 
60 | CCC(C)(C)NC(=O)C(C)(C)N1CCN(c2cccc(C)c2C)CC1 [Compound 19] | > 10 | 
